Results on six compounds are retold here after paper PMC6268742, “Flavonoids and Other Compounds from Ouratea ferruginea (Ochnaceae) as Anticancer and Chemopreventive Agents” (Molecules, 2012).

Data set [1] has as its system cytochrome P450-dependent 7-ethoxycoumarin O-deethylase (ECOD). Put plainly: CYP-catalyzed ethoxycoumarin O-desalkylation (ECOD) inhibition assay with rat liver microsomes. Type of data set: biochemical. The following applies: rat hepatic microsomes; for ECOD activity: compound 0.08 mg/mL, activity relative to control (DMSO) = 100%. As for the experimental part:
(§1) Male Wistar rats ([…] weight) were obtained from Universidade da Zona Oeste (UEZO). The animals were kept under light- and temperature-controlled conditions and were provided with rodent laboratory chow and water ad libitum. The rats were euthanized prior to the preparation of cytosolic and microsomal fractions. The livers were removed, placed in ice-cold 0.1 M phosphate buffer (pH 7.4) and then homogenized. Fractions were prepared by differential centrifugation and protein content was determined by Peterson’s methods.
(§2) 5,4′-Dihydroxy-7,3′5′-trimethoxyisoflavone (9), 7,3′-di-O-methylorobol (10), piscigenin (11), and sequoiaflavone (15) were accurately weighed. Solutions were prepared at a concentration of 8 mg/mL using DMSO as a solvent. CYP1A and GST assays were used aliquots of 10 µL of solution.
Ethoxycoumarin O-desalkylation by rat liver microsomes was used as a probe to determine CYP1A activity. Ethoxycumarin (1 mM), NADPH (1 mM), magnesium chloride (10 mM) and rat liver microsomes (5.5 μg) were incubated in phosphate buffer (0.1 M), pH 7.8 (0.5 mL ﬁnal volume). Incubations were at 37 °C for 5 min. The reaction was terminated with trichloroacetic acid (TCA) 2.5% followed by centrifugation (1000 g, 10 min). Immediately before ﬂuorescence determination, 2 mL of glycine-NaOH buffer were added and fluorescence of cumarin was determined (excitation: 390 nm and emission 440 nm). CYP activity was calculated as amount of produced cumarin per minute per protein mg. Assays containing phytochemicals were compared with control with DMSO (dimethylsulfoxide).
On the technique in general: Liver microsomes are vesicles of endoplasmic reticulum, rich in cytochrome P450 enzymes.

Data set [2] relates to glutathione S-transferase (GST). Put plainly: Glutathione S-transferase (GST) inhibition assay (CDNB conjugation) with rat hepatic cytosolic fraction. The following applies: for GST activity: compound 0.08 mg/mL, activity relative to control (DMSO), CDNB substrate; for inhibition of GST activity: 0.08 mg/mL. It is filed as biochemical. As to the method:
as §1, §2
The conjugation of glutathione to 1-chloro-2,4,-dinitrobenzene (CDNB) was measured as a non-speciﬁc substrate for GST activity. To a quartz cuvette reduced cytosolic fraction (10 μg), CDNB (2 mM) and 100 mM potassium phosphate buffer (pH 6.1) were added in a ﬁnal volume of 1 mL. The cuvette was placed in a spectrophotometer and the reaction initiated by the addition of glutathione (5 mM). The increase in absorbance at 340 nm over a 3 min period was measured at room temperature. An extinction coefﬁcient of […] was used to determine activity from the initial slope of the reaction. GST activity was calculated as amount of produced conjugated per minute per protein mg. Assays containing phytochemicals were compared with control with DMSO (dimethylsulfoxide).

For a further data set, the system named is CYP1A1. Further details: method as in PMID 15661813. The following applies: HepG2 cell; cited from earlier work.
Data set [3] concerns 7-ethoxycoumarin O-deethylase (ECOD). Details: method as in PMID 9522437. The following applies: liver microsomes from rats treated with 3-methylcholanthrene; cited from earlier work.

Where “and” joins values, the source holds several entries; their conditions need not be identical. Equal values may be shown once.

As to `COc1cc(O)c2c(=O)cc(-c3ccc(O)c(-c4c(O)cc(O)c5c(=O)cc(-c6ccc(O)cc6)oc45)c3)oc2c1` [Compound 15, sequoiaflavone], the “inhibition of ECOD activity” value in data set [1] (compared with control 100%, 0.08 mg/mL) was found to be 75%. Besides, the ECOD activity in data set [1] was 24.8% and 24.8 ± 1.2%. This compound also registered a GST activity in data set [2] of 77.4 ± 6.7%.
In the case of `COc1cc(OC)c2c(=O)cc(-c3ccccc3)oc2c1` [DMF, 5,7-Dimethoxyflavone], the “CYP1A1 EROD activity” value in the data set on CYP1A1 is on record as “virtually down to zero”.
As for (±)-catechin, in data set [3], the “effect on microsomal ECOD activity” value is given as “no effect”.
Regarding `COc1cc(-c2coc3cc(O)cc(O)c3c2=O)cc(OC)c1O` [Compound 11, piscigenin], the ECOD activity in data set [1] stood at 53.5 ± 12.4%. For the same compound, in data set [2], the “inhibition of GST activity” value is listed as roughly 70% and the GST activity was 32.2 ±1.3%.
In turn, `COc1cc(O)c2c(=O)c(-c3ccc(O)c(OC)c3)coc2c1` [Compound 10, 7,3′-di-O-methylorobol] gave an ECOD activity in data set [1] of 77.8 ± 11.6%. Moreover, the “inhibition of GST activity” value in data set [2] was “not observed”.
In the case of `COc1cc(O)c2c(=O)c(-c3cc(OC)c(O)c(OC)c3)coc2c1` [Compound 9, 5,4′-dihydroxy-7,5′,3′-trimethoxyisoflavone], the ECOD activity in data set [1] is given as 66.9 ±27.7%. In data set [2], the “inhibition of GST activity” value is recorded as roughly 75% and the GST activity was 25.3 ±5.3%.
